According to BindingDB's records for doi:10.1021/jm300601d (Boehringer Ingelheim Pharmaceuticals, 2012):

Assay: Inhibition of NHE1 in human platelet rich plasma assessed as reduction of propionate medium induced platelet swelling measured every 6 secs for 5 mins

Which EC50 does the source give for `CCC(=O)N1CCC(c2ccc(C(=O)NC(=N)N)cc2C(F)(F)F)CC1` here?
The EC50 was 31 nM.

For `CC(=O)N1CCC(c2cc(C)c(C(=O)NC(=N)N)cc2S(C)(=O)=O)CC1`, which EC50 is on record?
The EC50 was 56 nM.

With `N=C(N)NC(=O)c1ccc(C2CCN(C(=O)c3cccnc3)CC2)c(C(F)(F)F)c1` as the molecule, how does the EC50 read?
Its EC50 is 32 nM.

For `CC(C)CC(=O)N1CCC(c2ccc(C(=O)NC(=N)N)cc2C(F)(F)F)CC1`, which EC50 is on record?
Its EC50 is 221 nM.

With `N#Cc1ccccc1C(=O)N1CCC(c2ccc(C(=O)NC(=N)N)cc2C(F)(F)F)CC1` as the molecule, how does the EC50 read?
Its EC50 is 200 nM.

For `CS(=O)(=O)c1ccc(C(=O)N2CCC(c3ccc(C(=O)NC(=N)N)cc3C(F)(F)F)CC2)cc1`, which EC50 is on record?
The EC50 was 93 nM.

For `N=C(N)NC(=O)c1ccc(C2CCN(C(=O)c3ccc[nH]3)CC2)c(C(F)(F)F)c1`, which EC50 is on record?
Its EC50 is 241 nM.

Which EC50 does the source give for `CCCC(=O)N1CCC(c2ccc(C(=O)NC(=N)N)cc2C(F)(F)F)CC1` here?
The EC50 was 201 nM.

For `Cn1ccnc1C(=O)N1CCC(c2ccc(C(=O)NC(=N)N)cc2C(F)(F)F)CC1`, which EC50 is on record?
Its EC50 is 111 nM.

Which EC50 does the source give for `N=C(N)NC(=O)c1ccc(N2CCCC(NC(=O)c3ccc[nH]3)C2)c(C(F)(F)F)c1` (centres undefined) here?
The EC50 was 3480 nM.

For `Cc1cc(C(=O)N2CCC(c3ccc(C(=O)NC(=N)N)cc3C(F)(F)F)CC2)nn1C`, which EC50 is on record?
Its EC50 is 115 nM.

For `Cn1cncc1C(=O)N1CCC(c2ccc(C(=O)NC(=N)N)cc2C(F)(F)F)CC1`, which EC50 is on record?
The EC50 was 62 nM.

With `N=C(N)NC(=O)c1ccc(C2CCN(C(=O)c3ccncc3)CC2)c(C(F)(F)F)c1` as the molecule, how does the EC50 read?
The EC50 was 70 nM.

Which EC50 does the source give for `COc1ccc(C(=O)N2CCC(c3ccc(C(=O)NC(=N)N)cc3C(F)(F)F)CC2)cc1` here?
Its EC50 is 498 nM.

Which EC50 does the source give for `CCC(=O)N1CCC(c2ccc(C(=O)NC(=N)N)cc2S(C)(=O)=O)CC1` here?
Its EC50 is 266 nM.

For `N=C(N)NC(=O)c1ccc(C2CCN(C(=O)c3ccc(Cl)cc3)CC2)c(C(F)(F)F)c1`, which EC50 is on record?
The EC50 was 1130 nM.

With `N=C(N)NC(=O)c1ccc(C2CCN(C(=O)C3CCCC3)CC2)c(C(F)(F)F)c1` as the molecule, how does the EC50 read?
The EC50 was 416 nM.

For `CCC(=O)N1CCC(c2cc(C)c(C(=O)NC(=N)N)cc2S(C)(=O)=O)CC1`, which EC50 is on record?
The EC50 was 88 nM.

With `CC(=O)N1CCC(c2ccc(C(=O)NC(=N)N)cc2S(C)(=O)=O)CC1` as the molecule, how does the EC50 read?
Its EC50 is 189 nM.

With `CNC(=O)c1ccc(C(=O)N2CCC(c3ccc(C(=O)NC(=N)N)cc3C(F)(F)F)CC2)cc1` as the molecule, how does the EC50 read?
Its EC50 is 214 nM.

For `N=C(N)NC(=O)c1ccc(N2CCN(C(=O)c3ccc[nH]3)CC2)c(C(F)(F)F)c1` [SABIPORIDE], which EC50 is on record?
The EC50 was 172 nM.

Which EC50 does the source give for `N=C(N)NC(=O)c1ccc(C2CCN(C(=O)c3ccc(C(N)=O)cc3)CC2)c(C(F)(F)F)c1` here?
Its EC50 is 36 nM.

With `CS(=O)(=O)c1ccccc1C(=O)N1CCC(c2ccc(C(=O)NC(=N)N)cc2C(F)(F)F)CC1` as the molecule, how does the EC50 read?
The EC50 was 269 nM.

For `N#Cc1ccc(C(=O)N2CCC(c3ccc(C(=O)NC(=N)N)cc3C(F)(F)F)CC2)cc1`, which EC50 is on record?
Its EC50 is 152 nM.

Which EC50 does the source give for `N=C(N)NC(=O)c1ccc(C2CCN(C(=O)c3ccccc3Cl)CC2)c(C(F)(F)F)c1` here?
Its EC50 is 495 nM.

Which EC50 does the source give for `N=C(N)NC(=O)c1ccc(C2CCN(C(=O)c3ccccn3)CC2)c(C(F)(F)F)c1` here?
The EC50 was 79 nM.

For `N=C(N)NC(=O)c1ccc(C2CCN(C(=O)c3ccc(F)cc3)CC2)c(C(F)(F)F)c1`, which EC50 is on record?
Its EC50 is 184 nM.

For `N=C(N)NC(=O)c1ccc(C2CCN(C(=O)c3ccc(-n4ccnc4)cc3)CC2)c(C(F)(F)F)c1`, which EC50 is on record?
Its EC50 is 169 nM.

With `COCC(=O)N1CCC(c2ccc(C(=O)NC(=N)N)cc2C(F)(F)F)CC1` as the molecule, how does the EC50 read?
Its EC50 is 48 nM.

Which EC50 does the source give for `CS(=O)(=O)c1cccc(C(=O)N2CCC(c3ccc(C(=O)NC(=N)N)cc3C(F)(F)F)CC2)c1` here?
The EC50 was 50 nM.

Which EC50 does the source give for `N=C(N)NC(=O)c1ccc(N2CCC(NC(=O)c3ccc[nH]3)C2)c(C(F)(F)F)c1` (centres undefined) here?
The EC50 was 1590 nM.

For `CNS(=O)(=O)c1ccc(C(=O)N2CCC(c3ccc(C(=O)NC(=N)N)cc3C(F)(F)F)CC2)cc1`, which EC50 is on record?
Its EC50 is 88 nM.

Which EC50 does the source give for `CN(C)C(=O)c1ccc(C(=O)N2CCC(c3ccc(C(=O)NC(=N)N)cc3C(F)(F)F)CC2)cc1` here?
Its EC50 is 77 nM.

For `COc1cc(C2CCN(C(C)=O)CC2)c(C(F)(F)F)cc1C(=O)NC(=N)N`, which EC50 is on record?
The EC50 was 432 nM.

With `CC(C)(C)C(=O)N1CCC(c2ccc(C(=O)NC(=N)N)cc2C(F)(F)F)CC1` as the molecule, how does the EC50 read?
Its EC50 is 127 nM.

For `N=C(N)NC(=O)c1ccc(C2CCN(C(=O)c3ccccc3)CC2)c(C(F)(F)F)c1`, which EC50 is on record?
Its EC50 is 109 nM.

For `N=C(N)NC(=O)c1ccc(C2CCN(C(=O)c3ccc(=O)[nH]c3)CC2)c(C(F)(F)F)c1`, which EC50 is on record?
The EC50 was 25 nM.

For `N=C(N)NC(=O)c1ccc(C2CCN(C(=O)c3ccc(-c4cnco4)cc3)CC2)c(C(F)(F)F)c1`, which EC50 is on record?
The EC50 was 368 nM.

With `N=C(N)NC(=O)c1ccc(C2CCN(C(=O)c3cccc(Cl)c3)CC2)c(C(F)(F)F)c1` as the molecule, how does the EC50 read?
The EC50 was 989 nM.

With `N=C(N)NC(=O)c1ccc(N2CCC(NC(=O)c3ccc[nH]3)CC2)c(C(F)(F)F)c1` as the molecule, how does the EC50 read?
Its EC50 is 950 nM.

For `N=C(N)NC(=O)c1ccc(C2CCN(C(=O)c3cccc(-c4cnco4)c3)CC2)c(C(F)(F)F)c1`, which EC50 is on record?
Its EC50 is 353 nM.

Which EC50 does the source give for `N=C(N)NC(=O)c1ccc(C2CCN(C(=O)c3ccc(C(F)(F)F)cc3)CC2)c(C(F)(F)F)c1` here?
Its EC50 is 539 nM.

For `N=C(N)NC(=O)c1ccc(C2CCN(C(=O)C3CC3)CC2)c(C(F)(F)F)c1`, which EC50 is on record?
The EC50 was 50 nM.

Which EC50 does the source give for `CN(C)S(=O)(=O)c1ccc(C(=O)N2CCC(c3ccc(C(=O)NC(=N)N)cc3C(F)(F)F)CC2)cc1` here?
Its EC50 is 241 nM.

For `N#Cc1cccc(C(=O)N2CCC(c3ccc(C(=O)NC(=N)N)cc3C(F)(F)F)CC2)c1`, which EC50 is on record?
Its EC50 is 111 nM.

With `CC(=O)N1CCC(c2cc(C)c(C(=O)NC(=N)N)cc2C(F)(F)F)CC1` as the molecule, how does the EC50 read?
The EC50 was 28 nM.

With `N=C(N)NC(=O)c1ccc(C2CCN(C(=O)c3ccc(S(N)(=O)=O)cc3)CC2)c(C(F)(F)F)c1` as the molecule, how does the EC50 read?
The EC50 was 23 nM.

Which EC50 does the source give for `CC(C)C(=O)N1CCC(c2ccc(C(=O)NC(=N)N)cc2C(F)(F)F)CC1` here?
The EC50 was 79 nM.

For `N=C(N)NC(=O)c1ccc(C2CCN(C(=O)c3ccc(O)cc3)CC2)c(C(F)(F)F)c1`, which EC50 is on record?
The EC50 was 138 nM.
